Test results from ChEMBL document CHEMBL1142200, “Efficacy of delayed treatment with ST-246 given orally against systemic orthopoxvirus infections in mice” (Antimicrob Agents Chemother, 2007).
The source made the active and inactive calls. The rule behind the calls is not given here.

Tests used:
[1] = test system: Ectromelia virus; test: Reduction of Ectromelia virus replication in BALB/c mouse esophagus at 100 mg/kg, po once daily after 6 days; type: functional, organism-based; design: dose 100 mg/kg
[2] = test system: Cowpox virus; test: Reduction of Cowpox virus BR replication in BALB/c mouse spleen at 50 mg/kg after 24 hrs of viral infection, po for 9 days; type: functional, organism-based; design: dose 50 mg/kg
[3] = test system: Cowpox virus; test: Reduction of Cowpox virus BR replication in BALB/c mouse lung at 50 mg/kg after 24 hrs of viral infection, po for 9 days; type: functional, organism-based; design: dose 50 mg/kg
[4] = test system: Mus musculus; test: Effect on mortality of BALB/c mouse inoculated with Cowpox virus BR at 100 mg/kg after 4 hrs of viral infection, po once daily for 7 days relative to control; type: functional
[5] = test system: Vaccinia virus; test: Reduction of Vaccinia virus WR replication in BALB/c mouse kidney at 50 mg/kg after 24 hrs of viral infection, po for 9 days; type: functional, organism-based; design: dose 50 mg/kg; conditions: Orthopoxvirus vaccinia
[6] = test system: Ectromelia virus; test: Reduction of Ectromelia virus replication in BALB/c mouse lung at 100 mg/kg, po once daily after 14 days; type: functional, organism-based; design: dose 100 mg/kg
[7] = test system: Mus musculus; test: Effect on mortality of BALB/c mouse inoculated with Cowpox virus at 100 mg/kg after 24 hrs of viral infection, po once daily for 14 days relative to control; type: functional
[8] = test system: Mus musculus; test: Effect on mortality of A/NCr mouse inoculated with ectromelia virus at 100 mg/kg after 0 hrs of viral infection, po once daily for 10 days relative control; type: functional
[9] = test system: Mus musculus; test: Effect on mortality of A/NCr mouse inoculated with ectromelia virus at 100 mg/kg after 24 hrs of viral infection, po once daily for 10 days relative control; type: functional
[10] = test system: Mus musculus; test: Effect on mortality of BALB/c mouse inoculated with Cowpox virus BR at 100 mg/kg after 24 hrs of viral infection, po once daily for 10 days relative to control; type: functional
[11] = test system: Mus musculus; test: Effect on mortality of BALB/c mouse inoculated with Cowpox virus at 30 mg/kg after 48 hrs of viral infection, po once daily for 14 days relative to control; type: functional
[12] = test system: Ectromelia virus; test: Reduction of Ectromelia virus replication in BALB/c mouse liver at 100 mg/kg, po once daily after 14 days; type: functional, organism-based; design: dose 100 mg/kg
[13] = Cytotoxicity against HFF cells; type: cell-based; conditions: human
[14] = Selectivity index, ratio of CC50 for HFF cells to EC50 for Vaccinia virus Copenhagen infected HFF cells; type: functional
[15] = test system: Mus musculus; test: Effect on mortality of BALB/c mouse inoculated with Cowpox virus at 100 mg/kg after 4 hrs of viral infection, po once daily for 14 days relative to control; type: functional
[16] = test system: Ectromelia virus; test: Reduction of Ectromelia virus replication in BALB/c mouse spleen at 100 mg/kg, po once daily after 6 days; type: functional, organism-based; design: dose 100 mg/kg
[17] = test system: Ectromelia virus; test: Reduction of Ectromelia virus replication in BALB/c mouse lung at 100 mg/kg, po once daily after 4 days; type: functional, organism-based; design: dose 100 mg/kg
[18] = test system: Mus musculus; test: Effect on mortality of A/NCr mouse inoculated with 410 PFU ectromelia virus at 100 mg/kg after 24 hrs of viral infection, po twice daily for 14 days; type: functional
[19] = test system: Ectromelia virus; test: Reduction of Ectromelia virus replication in BALB/c mouse lung at 100 mg/kg, po once daily after 8 days; type: functional, organism-based; design: dose 100 mg/kg
[20] = test system: Cowpox virus; test: Reduction of Cowpox virus BR replication in BALB/c mouse kidney at 50 mg/kg after 24 hrs of viral infection, po for 9 days; type: functional, organism-based; design: dose 50 mg/kg
[21] = test system: Mus musculus; test: Effect on mortality of A/NCr mouse inoculated with ectromelia virus at 100 mg/kg after 48 hrs of viral infection, po once daily for 10 days relative control; type: functional
[22] = test system: Mus musculus; test: Effect on mortality of BALB/c mouse inoculated with Cowpox virus at 10 mg/kg after 72 hrs of viral infection, po once daily for 14 days relative to control; type: functional
[23] = test system: Mus musculus; test: Effect on mortality of BALB/c mouse inoculated with Vaccinia virus WR at 100 mg/kg after 4 hrs of viral infection, po once daily for 5 days relative to control; type: functional
[24] = test system: Vaccinia virus; test: Reduction of Vaccinia virus WR replication in BALB/c mouse liver at 50 mg/kg after 24 hrs of viral infection, po for 9 days; type: functional, organism-based; design: dose 50 mg/kg; conditions: Orthopoxvirus vaccinia
[25] = test system: Ectromelia virus; test: Reduction of Ectromelia virus replication in BALB/c mouse trachea at 100 mg/kg, po once daily after 8 days; type: functional, organism-based; design: dose 100 mg/kg
[26] = test system: Ectromelia virus; test: Reduction of Ectromelia virus replication in BALB/c mouse trachea at 100 mg/kg, po once daily after 14 days; type: functional, organism-based; design: dose 100 mg/kg
[27] = test system: Mus musculus; test: Effect on mortality of BALB/c mouse inoculated with Vaccinia virus WR at 100 mg/kg after 24 hrs of viral infection, po once daily for 5 days relative to control; type: functional
[28] = test system: Mus musculus; test: Effect on mortality of BALB/c mouse inoculated with Vaccinia virus WR at 50 mg/kg after 24 hrs of viral infection, po for 9 days; type: functional, organism-based; design: dose 50 mg/kg
[29] = test system: Mus musculus; test: Effect on mortality of BALB/c mouse inoculated with Cowpox virus BR at 50 mg/kg after 24 hrs of viral infection, po for 9 days; type: functional, organism-based; design: dose 50 mg/kg
[30] = test system: Mus musculus; test: Effect on mortality of A/NCr mouse inoculated with 4100 PFU ectromelia virus at 100 mg/kg after 24 hrs of viral infection, po twice daily for 14 days; type: functional
[31] = Selectivity index, ratio of CC50 for HFF cells to EC50 for Cowpox virus Brighton infected HFF cells; type: functional
[32] = test system: Mus musculus; test: Effect on mortality of BALB/c mouse inoculated with Cowpox virus at 30 mg/kg after 4 hrs of viral infection, po once daily for 14 days relative to control; type: functional
[33] = test system: Mus musculus; test: Effect on mortality of BALB/c mouse inoculated with Vaccinia virus WR at 100 mg/kg after 24 hrs of viral infection, po once daily for 7 days relative to control; type: functional
[34] = test system: Mus musculus; test: Effect on mortality of BALB/c mouse inoculated with Cowpox virus at 30 mg/kg after 24 hrs of viral infection, po once daily for 14 days relative to control; type: functional
[35] = test system: Ectromelia virus; test: Reduction of Ectromelia virus replication in BALB/c mouse trachea at 100 mg/kg, po once daily after 6 days; type: functional, organism-based; design: dose 100 mg/kg
[36] = test system: Mus musculus; test: Effect on mortality of BALB/c mouse inoculated with Cowpox virus at 10 mg/kg after 48 hrs of viral infection, po once daily for 14 days relative to control; type: functional
[37] = test system: Mus musculus; test: Effect on mortality of BALB/c mouse inoculated with Cowpox virus at 100 mg/kg after 72 hrs of viral infection, po once daily for 14 days relative to control; type: functional
[38] = test system: Ectromelia virus; test: Reduction of Ectromelia virus replication in BALB/c mouse lung at 100 mg/kg, po once daily after 6 days; type: functional, organism-based; design: dose 100 mg/kg
[39] = test system: Mus musculus; test: Effect on mortality of BALB/c mouse inoculated with Cowpox virus at 10 mg/kg after 4 hrs of viral infection, po once daily for 14 days relative to control; type: functional
[40] = test system: Ectromelia virus; test: Reduction of Ectromelia virus replication in BALB/c mouse esophagus at 100 mg/kg, po once daily after 8 days; type: functional, organism-based; design: dose 100 mg/kg
[41] = test system: Mus musculus; test: Effect on mortality of BALB/c mouse inoculated with Vaccinia virus WR at 100 mg/kg after 4 hrs of viral infection, po once daily for 14 days relative to control; type: functional
[42] = test system: Mus musculus; test: Effect on mortality of A/NCr mouse inoculated with ectromelia virus at 100 mg/kg after 72 hrs of viral infection, po once daily for 10 days relative control; type: functional

For `O=C(NN1C(=O)[C@@H]2[C@@H]3C=C[C@@H]([C@H]4C[C@@H]34)[C@@H]2C1=O)c1ccc(C(F)(F)F)cc1` [TECOVIRIMAT], the Activity [1] was “Active”, the Activity [2] was “Active” and the Activity [3] was “Active”. The Activity [4] was 7%, the Activity [5] was “Active” and the Activity [6] was “Active”. For the same compound, the Activity [7] was 27%, the Activity [8] was 0% and the Activity [9] was 0%. For the same compound, the Activity [10] was 40%, the Activity [11] was 20% and the Activity [12] was “Active”. The CC50 [13] was over 100 µM, the “Ratio CC50/EC50” value [14] was over 2000 and the Activity [15] was 11%. For the same compound, the Activity [16] was “Active”, the Activity [17] was “Active” and the Activity [18] was 0%. The Activity [19] was “Active”, the Activity [20] was “Active” and the Activity [21] was 0%. For the same compound, the Activity [22] was 47%, the Activity [23] was 13% and the Activity [24] was “Active”. For the same compound, the Activity [25] was “Active”, the Activity [26] was “Active” and the Activity [27] was 7%. For the same compound, the Activity [28] was “Active”, the Activity [29] was “Active” and the Activity [30] was 0%. For the same compound, the “Ratio CC50/EC50” value [31] was over 208, the Activity [32] was 50% and the Activity [33] was 7%. For the same compound, the Activity [34] was 40%, the Activity [35] was “Active” and the Activity [36] was 13%. The Activity [37] was 40%, the Activity [38] was “Active” and the Activity [39] was 92%. For the same compound, the Activity [40] was “Active”, the Activity [41] was 20% and the Activity [42] was 0%.
